Reference: publication PMC6095626, “Screening of the Pathogen Box for inhibitors with dual efficacy against Giardia lamblia and Cryptosporidium parvum” (PLoS Neglected Tropical Diseases, 2018)

Assays:
[1] = test system: G. lamblia trophozoites (luciferase expressing, WBC6); test: microbe, parasite or virus in culture; type: cell-based, Giardia lamblia; settings: for Giardia (16 uM) Mean % inhibition: initial Pathogen Box screen, single concentration 16 µM, inhibition compared to DMSO wells
Outline: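 Luciferase-expressing WBC6 trophozoites plated at 250,000 cells/mL, compounds added 1:1, incubated anaerobically (GasPak bags) at 37 °C for 24 h; viability read by bioluminescence, with duplicate plates counted on a MOXI Z cell counter. Metronidazole control serially diluted 1:2 from 40 μM.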

[2] = test system: C. parvum (UGA1 Nluc expressing strain in HCT-8 cells); test: microbe, parasite or virus in culture; type: cell-based, Cryptosporidium parvum; settings: initial Pathogen Box screen, single concentration 10 µM, inhibition compared to DMSO wells
Outline: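 HCT-8 monolayers grown 48 h to 90–100% confluence, treated with compound at 10 μM or serial dilutions, then infected with bleach-treated UGA1 Nluc C. parvum oocysts.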

Structure (SMILES)	Giardia (16 uM) Mean % inhibition [1]	Crypto (10 uM) Mean % inhibition [2]	G. lamblia inhibition of parasite growth in the initial screen ([1]; 16 μM, 24 hours) [%]	G. lamblia EC50 ([1]; luciferase expressing G. lamblia trophozoites, 24 hours, D-luciferin bioluminescence read-out)
O=C1O[C@@H](CO)CN1c1cc(F)c(C2=CCN(Cc3ccccc3)CC2)c(F)c1 [MMV687729]	25%	74%	–	–
CCCCOC(=O)Nc1cc2[nH]c(C3CCCCC3)nc2cc1N1CCCC1 [MMV687730]	24%	61%	–	–
Cc1cc(OCC(=O)NCc2ccccc2)c2cc(Br)ccc2n1 [MMV687747]	32%	54%	–	–
c1ccc(C[C@@H]2CN(c3nccc(Oc4ccc(-n5ccnc5)cc4)n3)CCN2)cc1 [MMV687749]	24%	58%	–	–
c1ccc(Oc2ccc(-c3cc(C4CCOCC4)[nH]n3)cc2)cc1 [MMV687762]	X* (Mean or standard deviation are negative but not significantly different from the control to be a growth promoter)	68%	–	–
Cc1cnc(N2CCN[C@@H](Cc3ccccc3)C2)nc1Oc1ccc(-n2ccnc2)cc1 [MMV687765]	49%	39%	–	–
CC1(C)OB(O)c2ccc(C3=NOC(c4cc(Cl)c(F)c(Cl)c4)(C(F)(F)F)C3)cc21 (stereo not drawn) [MMV687775]	X* (Mean or standard deviation are negative but not significantly different from the control to be a growth promoter)	56%	–	–
Cc1cc(C2=NOC(c3cc(Cl)c(F)c(Cl)c3)(C(F)(F)F)C2)ccc1C(=O)NCc1ccc2c(c1)C(C)(C)OB2O (stereo not drawn) [MMV687776]	27%	83%	–	–
CC1(C)Cc2c(c(N3CCOCC3)nc3snc(Br)c23)CO1 [MMV687794]	17%	X* (Mean or standard deviation are negative but not significantly different from the control to be a growth promoter)	–	–
NCCC(O)C(=O)N[C@@H]1C[C@H](N)[C@@H](OC2O[C@H](CN)[C@@H](O)[C@H](O)[C@H]2O)[C@H](O)C1OC1O[C@H](CO)[C@@H](O)[C@H](N)[C@H]1O (stereo partly drawn) [MMV687796]	X* (Mean or standard deviation are negative but not significantly different from the control to be a growth promoter)	82%	–	–
C[C@H]1COc2c(N3CCN(C)CC3)c(F)cc3c(=O)c(C(=O)O)cn1c23 [MMV687798]	61%	50%	–	–
CC[C@H](CO)NCCN[C@H](CC)CO [MMV687801]	X* (Mean or standard deviation are negative but not significantly different from the control to be a growth promoter)	8%	–	–
CC(=O)NC[C@@H]1CN(c2ccc(N3CCOCC3)c(F)c2)C(=O)O1 [MMV687803]	X* (Mean or standard deviation are negative but not significantly different from the control to be a growth promoter)	X* (Mean or standard deviation are negative but not significantly different from the control to be a growth promoter)	–	–
O=C1O[C@@H](COc2ccon2)CN1c1cc(F)c(C2=CCN(Cc3ccccc3)CC2)c(F)c1 [MMV687813]	32%	40%	–	–
Cc1cccc(-c2nc(Nc3ccncn3)c3sccc3n2)n1 [MMV688122]	33%	93%	–	–
CCc1ccc(S(=O)(=O)Nc2cc(CN3CCN(CCC(C)C)CC3)ccc2C)cc1 [MMV688124]	72%	X* (Mean or standard deviation are negative but not significantly different from the control to be a growth promoter)	–	–
CCCc1ccc(S(=O)(=O)Nc2ccc(CN3CCN(CC4CC4)CC3)cc2)cc1 [MMV688125]	59%	50%	–	–
c1ccc(Oc2ccc(-c3cncc(-c4ccc5[nH]ccc5c4)n3)cc2)cc1 [MMV688178]	X* (Mean or standard deviation are negative but not significantly different from the control to be a growth promoter)	59%	–	–
NC(N)=Nc1ccc(-c2ccc(-c3ccc(N=C(N)N)cc3Cl)o2)c(Cl)c1 [MMV688179]	11%	56%	–	–
Cc1nn(C)c(C)c1NS(=O)(=O)c1c(Cl)cc(-c2ccnc(N3CCNCC3)c2)cc1Cl [MMV688180]	21%	66%	–	–
COc1ccc(-c2cnc3cnc(-c4cccc(OC(C)C)c4)cn23)cc1 [MMV688270]	10%	X* (Mean or standard deviation are negative but not significantly different from the control to be a growth promoter)	–	–
N=C(N)Nc1ccc(-c2ccc(-c3ccc(N=C(N)N)c(Cl)c3)o2)cc1Cl [MMV688271]	53%	86%	–	–

Structure (SMILES)	Giardia (16 uM) Mean % inhibition [1]	Crypto (10 uM) Mean % inhibition [2]	G. lamblia inhibition of parasite growth in the initial screen ([1]; 16 μM, 24 hours) [%]	G. lamblia EC50 ([1]; luciferase expressing G. lamblia trophozoites, 24 hours, D-luciferin bioluminescence read-out)
Nc1ccc2ncnc(Nc3ccc(OCc4cccc(F)c4)c(Cl)c3)c2c1 [MMV688273]	51%	X* (Mean or standard deviation are negative but not significantly different from the control to be a growth promoter)	–	–
O=C(CN1CCOCC1)Nc1ccc2ncnc(Nc3ccc(OCc4cccc(F)c4)c(Cl)c3)c2c1 [MMV688274]	26%	47%	–	–
CC1=Nc2ccc(Cl)cc2C(O)(c2ccc(C)cc2)N1CCN1CCCCC1 (stereo not drawn) [MMV688279]	65%	43%	–	–
CN1CCN(S(=O)(=O)c2ccc(-c3ccc4c(Nc5ncc(Cl)cn5)ccnc4c3)cc2)CC1 [MMV688283]	95%	89%	≥ 95	not potent
COc1ccc(-c2nnc3ccc(-c4cccc(C(C)C)c4)cn23)cc1OC [MMV688313]	26%	34%	–	–
CC(=O)NC[C@H]1CN(c2ccc(-c3ccc(CNCc4cn[nH]n4)cc3)c(F)c2)C(=O)O1 [MMV688327]	21%	33%	–	–
CC(=O)N1CCN(c2ccc(Oc3ccc(Cl)cc3O)cc2)CC1 [MMV688330]	X* (Mean or standard deviation are negative but not significantly different from the control to be a growth promoter)	56%	–	–
Nc1nc(N)c2c3c(sc2n1)CN(Cc1ccccc1)CC3 [MMV688345]	16%	X* (Mean or standard deviation are negative but not significantly different from the control to be a growth promoter)	–	–
COC(=O)c1ccc(F)cc1NS(=O)(=O)c1cccc(-c2cnn(Cc3ccccc3)c2)c1 [MMV688350]	-6%	53%	–	–
O=C1[C@@H](Oc2ccccc2)[C@@H](c2ccc(Cl)cc2)N1CCn1cnc2c(NCc3ccccc3)ncnc21 [MMV688352]	41%	X* (Mean or standard deviation are negative but not significantly different from the control to be a growth promoter)	–	–
c1cc(C2=NCCN2)cc(-c2cc(-c3ccc(C4=NCCN4)cc3)no2)c1 [MMV688361]	38%	44%	–	–
COc1cc(C2=NCCN2)cc2cc(-c3ccc(C4=NCCN4)cc3)oc12 [MMV688362]	54%	67%	–	–
CC(C)(C)OC(=O)N1CCC(Cn2nc(-c3cnc4ccccc4c3)c3c(N)ncnc32)CC1 [MMV688364]	56%	X* (Mean or standard deviation are negative but not significantly different from the control to be a growth promoter)	–	–
NCCN(C(=O)c1ccc(Cl)cc1Cl)c1ccc(OCc2ccc(Cl)cc2)cc1 [MMV688371]	72%	76%	–	–
O=C(Nc1ccc(F)c(-c2nc3ncc(-c4ccccc4)cc3[nH]2)c1)N1CCCC1 [MMV688372]	24%	48%	–	–
COc1cc(C2=NCCN2)ccc1-c1cn(-c2cccc(C3=NCCN3)c2)nn1 [MMV688407]	50%	X* (Mean or standard deviation are negative but not significantly different from the control to be a growth promoter)	–	–
CC1=Nc2ccc(Cl)cc2C(c2ccccc2)N1CCNC(=O)CN(C)C (stereo not drawn) [MMV688410]	20%	62%	–	–
Nc1ncnc2c1c(-c1cnc3ccccc3c1)nn2CC1CCNCC1 [MMV688411]	X* (Mean or standard deviation are negative but not significantly different from the control to be a growth promoter)	X* (Mean or standard deviation are negative but not significantly different from the control to be a growth promoter)	–	–
CO[C@@H]1CN(c2ccc(C#CC3(O)CN4CCC3CC4)c(Cc3ccccc3)n2)C[C@H]1O (stereo partly drawn) [MMV688415]	X* (Mean or standard deviation are negative but not significantly different from the control to be a growth promoter)	X* (Mean or standard deviation are negative but not significantly different from the control to be a growth promoter)	–	–
CC(C)(C)OC(=O)N1CCN(c2nccc(-c3ccc(-c4ccc(Cl)cc4)s3)n2)CC1 [MMV688416]	55%	41%	–	–
CC(C)n1nc(-c2cc3c(Cl)cccc3[nH]2)c2c(N)ncnc21 [MMV688417]	77%	85%	–	–
Cn1ccnc1CNCCS(=O)(=O)c1cccc(Nc2ccc(-c3cccc(F)c3)cn2)c1 [MMV688466]	28%	43%	–	–
